According to US12527849B2, “Apparatus for determining administration form of a composition of an engineered virus-based nanoparticle for a treatment of an autoimmune condition” (Diamante Srl, priority 2021, dated 2026):

Legend:
[1] = test system: TNF-α; assay: Cytokine ELISA in CIA mice, day 60: TNF-α; assay type: in vivo
Text: (§1) With continued reference to FIG. 1, in some embodiments, administration 116 may be done to an animal. As a non-limiting example, the animal may include a mouse, a fish, a rabbit, human, and the like. As a non-limiting example, administration 116 of composition of the engineered virus-based nanoparticle for a treatment of an autoimmune condition may be done to dilute, brown, and non-agouti (DBA) mice based on their susceptibility to collagen-induced arthritis (CIA). Female DBA/1 mice 6 to 8 weeks of age may be maintained under specific pathogen-free conditions. CIA may be induced by the intradermal tail base injection of 100 μg of chicken type II collagen (Sigma-Aldrich) as previously described. Five mice per group may be immunized on days 0 and 21 to induce arthritis. The onset of disease may be confirmed on the day that swelling or erythema may be observed in any paw, typically 4 to 10 days after the second immunization. […] CIA may be assessed using a macroscopic score system based on the visual identification of arthritic limbs. The clinical severity of arthritis may be evaluated as follows: Each mouse may be inspected every 2 to 3 days for three different parameters: (i) swelling of the hind ankle and foot, measured with calipers; (ii) erythema of each leg; and (iii) swelling of the fingers. The RA index for each mouse was expressed as the mean of the three scores from the individual parameters. At the end of the experiment (60 days), we determined the proportion of CD25+Foxp3+ cells in the lymph nodes and measured cytokine titers in the lymph nodes, joints, and serum.
(§2) With continued reference to FIG. 1, in some embodiments, processor 104 may determine critical administration 124 as a function of a cytokine profile and a proportion of CD25^+ Foxp3^+ cells. […] In some embodiments, to quantify cytokines in DBA mice, joint tissues may be pulverized and resuspended in 1 ml of lysis medium per 100-mg joint weight for 60 min at 37′C, followed by centrifugation to remove debris. […]

[2] = test system: IFN-γ; assay: Cytokine ELISA in CIA mice, day 60: IFN-γ; assay type: in vivo
Text: as §1, §2

[3] = joint supernatant, CIA mice, day 60, mean n=3
[4] = lymph node supernatant, CIA mice, day 60, mean n=3
[5] = serum pooled from five CIA mice, day 60

Question: Which results are given for `C[C@@H]1C[C@H]2[C@@H]3CCC4=CC(=O)C=C[C@]4(C)[C@@]3(F)[C@@H](O)C[C@]2(C)[C@@]1(O)C(=O)CO` [Dexamethasone, dexamethasone]?
Answer: TNF-α J [1, 3]: 49.20 pg/mL; TNF-α LN [1, 4]: 107.90 pg/mL; TNF-α S [1, 5]: 24.2 pg/mL; IFN-γ J [2, 3]: 187.23 pg/mL; IFN-γ LN [2, 4]: 210.86 pg/mL; IFN-γ S [2, 5]: 75.6 pg/mL
